Data on eight compounds can be found in article PMC12519996, “Copper pyrithione complexes with endoplasmic reticulum localisation showing anticancer activity via ROS generation” (Chemical Science, 2025).

For series [1], the system named is pancreatic cancer MIA PaCa-2 cells. Kind of series: Cell viability (MTT) assay, MIA PaCa-2. The class given is cell-based, human. To be noted: for IC50: 24 h incubation, n = 9, MTT, read-out: IC50 ± SD, MIA PaCa-2. As to the method: (§1) The potential therapeutic activity of the copper pyrithione complexes was determined by screening complexes for 24 hours against human cancer cell lines MCF-7 (breast) and MIA PaCa-2 (pancreatic), alongside a non-cancerous epithelial cell line ARPE-19 (retinal). As controls, cisplatin and CuCl2·2H2O were also included in the screen (Table 2). […]
(§2) All cell lines were maintained as monolayers in either T75 or T175 flasks in complete high glucose DMEM media (supplemented with 10% Fetal Bovine Serum, 1% sodium pyruvate, 1% L-glutamine, 1% penstrep). All cell lines were seeded at 4000 cells/well in a clear-bottom 96-well plate and incubated for 24 h for cells to adhere. The cells were treated with varying concentrations of each complex and left to incubate for a further 24 h. MTT reagent (20 mL, 5 mg/mL) was added to each well, and the plates were incubated for 3 h. The media was removed by aspiration, followed by the addition of DMSO (150 mL) to solubilise the formazan. The absorbance was read using a Clariostar plate reader at 540 nm. Results were plotted on a logarithmic scale, and the half maximal inhibitory concentration (IC 50) was determined from a triplicate of triplicate repeats and reported as an IC 50 ± Standard Deviation (SD). […]

For series [2], the system named is non-cancerous retinal epithelial ARPE-19 cells. Kind of series: Cell viability (MTT) assay, ARPE-19. The class given is cell-based. The following applies: 24 h incubation, n = 9, MTT; read-out: IC50 ± SD, ARPE-19. As for the experimental part: as §1, §2
For series [3], the system named is MCF-7 cells. Kind of series: Reactive oxygen species study, H2DCFDA stain (Method 1). The class given is cell-based, human. The following applies: complex at 10 μM for 1 h, H2DCFDA 20 μM for 30 min. From the text: To understand a potential mechanism of action, we determined production of reactive oxygen species (ROS) using fluorescent microscopy assays. ROS production is a common mode of therapeutic activity of copper complexes.[43] […] In the presence of ROS, H2DCFDA converts to a fluorescent dye that can be observed using microscopy. […] By contrast, control cells with no pyrithione complex added show little fluorescence (Fig. 6A). […] (Fig. 6B), [Cu(6-Me-PT)2] (Fig. 6C), and [Cu(3-OMe-PT)2] […] (Fig. 6D) was weaker. This variation correlates well with the cytotoxicity data in Table 2, with the methyl and methoxy complexes also showing the highest activity.
Next, cells were dosed at two concentrations of pyrithione complex to determine whether production of ROS is dose-dependent. Results for [Cu(3-OMe-PT)2] are shown at 1 μM (Fig. 6E) and 10 μM (Fig. 6F) after 1 hour; results for other complexes are shown in the SI (Fig. S11 and 12). In all cases, the fluorescence intensity increases in assays with 10 μM complex, compared to assays with 1 μM complex, supporting a mode of action where increasing complex concentration leads to increased ROS generation and higher cytotoxicity. […]
absorbance and K = binding constant. […]
The cells were treated with varying
Results were plotted on a
Reactive oxygen species study:
Method 1: 2′,7′-dichlorodihydrofluorescein diacetate (H 2DCFDA) stain: […]
untreated sample (negative control). After this time, 2′,7′-dichlorodihydrofluorescein diacetate […]
Stock solutions of the compounds (5 mM) were made

Series [4] in a line: Thermodynamic stability constant, Benesi-Hildebrand UV-vis titration. The class given is physicochemical. To be noted: Benesi-Hildebrand method, MeCN:H2O 1:1, absorbance at 320 nm. As for the experimental part: (§3) Where [M] is concentration of copper, [L] is concentration of the activated ligand, b is the pathlength, which was kept at 1 cm, ɛ is molar extinction coefficient of the complex, A is absorbance and K = binding constant.
All cell lines were maintained as monolayers in either T75 or T175 flasks in complete high glucose DMEM media (supplemented with 10% Fetal Bovine Serum, 1% sodium pyruvate, 1% L-glutamine, 1% penstrep). All cell lines were seeded at 4000 cells/well in a clear-bottom 96-well plate and incubated for 24 h for cells to adhere. The cells were treated with varying concentrations of each complex and left to incubate for a further 24 h. MTT reagent ([…], 5 mg/mL) was added to each well, and the plates were incubated for 3 h. The media was removed by aspiration, followed by the addition of DMSO ([…]) to solubilise the formazan. The absorbance was read using a Clariostar plate reader at 540 nm. Results were plotted on a logarithmic scale, and the half maximal inhibitory concentration (IC 50) was determined from a triplicate of triplicate repeats and reported as an IC 50 ± Standard Deviation (SD).

The subject of series [5] is breast cancer MCF-7 cells. Description: Cell viability (MTT) assay, MCF-7. In kind it is cell-based, human. To be noted: for IC50: 24 h incubation, n = 9, MTT, read-out: IC50 ± SD, MCF-7; for Selectivity index (SI) against MCF-7: IC50 against non-cancerous ARPE-19 cells divided by IC50 against MCF-7. As to the method:
as §1, §2

Series [6] deals with HepG2 (liver) cancer cell line. The following applies: cited from earlier work.
Series [7] has as its system NCI-H929 (myeloma) cancer cell line. The following applies: cited from earlier work.
Series [8] has as its system MCF-7 cells. To be noted: dosed, fixed. As for the experimental part: as §3
as §2, with “MTT reagent (20 mL, 5 mg/mL) was added to each well, and the plates were incubated for 3 h. The media was removed by aspiration, followed by the addition of DMSO (150 mL) to solubilise the formazan.” left out
MCF-7 cells were seeded into a black 96 well optical bottom plate at 8000 cells/well in phenol-red free complete DMEM medium (100 μl), and incubated at 37 °C and 5% CO 2 for 24 h. […] Cells were gently washed with PBS (2 x 100 µl), and 100 µl of PBS was added to each well before reading.
Fluorescence images were obtained using Zeiss Axio Observer 7 inverted microscope at excitation at 488 nm and emission at 509 nm, and analysed using ZEN 3.8 software. […]

The nature of series [9]: Lipophilicity, octanol:water shake-flask method with ICP-OES copper quantification. The following applies: copper by ICP-OES, triplicate.
Method: Due to the low aqueous solubility of [Cu(PT)2], inductively coupled plasma-optical emission spectroscopy (ICP-OES) was used to quantify copper in the octanol and water layers (see SI).
General procedure for logP measurement:
Stock solutions (10 mM) of the tested copper complexes were prepared in DMSO solvent.
Water and octanol were saturated with the other solvent to match the final shake-flask
conditions. Next, log P values were determined using the shake-flask method. For each
complex, 60 µl of the stock solution was added to a mixture of 3 ml water and 3 ml n-octanol.
The solution was shaken by hand and vortexed. The layers were separated and analysed by
inductively coupled plasma optical emission spectroscopy (ICP-OES). For the octanol layer,
100 µl was collected in a vial and the solvent was evaporated under high vacuum. Next, the
residue was dissolved in 100 µl methanol and further diluted with 10 ml of 5% aqueous nitric
acid (HNO 3) solution for digestion. For the water layer, 1 ml of solution was diluted with 9 ml
of 5% aqueous HNO 3 solution. After analysis through ICP-OES technique, the amount of
copper in each sample was determined in ppm. To remove background copper, the exact
conditions were repeated in the absence of copper pyrithione complexes and the values were
subtracted from the measured values. The partition coefficient (P) and respective logP values
A short description of series [10]: Solubility by observation. To be noted: aqueous and organic solvents, qualitative.
In series [11] the test system is MCF-7 (breast) cancer cell line. The following applies: cited from earlier work.
The test system of series [12] is U266 (myeloma) cancer cell line. The following applies: cited from earlier work.

For orientation: IC50 means the point on the concentration scale where inhibition reaches its midpoint. On to `Cc1cccc([S][Cu][S]c2cccc(C)[n+]2[O-])[n+]1[O-]` [[Cu(6-Me-PT)2]], for which the values for the IC50 in [1], in [2] and in series [5] were 2100 ± 100 nM, 570 ± 30 nM and 570 ± 10 nM, respectively. Further, the “ROS production, H2DCFDA fluorescence” value in [3] is given as “brightest fluorescence”. The “Log(K/(M^−2))” value in series [4] came to 7.498 ± 0.005.
As to `[Cl][Cu][Cl]` [CuCl2·2H2O, reference compound], the IC50 in [1] is above 100000 nM; in [2], 83000 ± 2000 nM; in series [5] it was above 100000 nM.
For orientation: Log P means the decadic logarithm of the partition coefficient of the neutral form, usually between octanol and water. A lower Log P goes with lower lipophilicity. As to `On1ccccc1=S.On1ccccc1=S.[Cu]` [[Cu(PT)2], copper pyrithione], the IC50 stood at 2220 ± 80 nM in series [1], 410 ± 50 nM in series [2] and 270 ± 10 nM in series [5]. The “ROS production, H2DCFDA fluorescence” value in series [3] is on record as “brightest fluorescence”. In addition, the “IC50 against HepG2” value in series [6] is “submicromolar”. The “IC50 against NCI-H929” value in series [7] is “submicromolar”. For the same compound, in [4], the “Log(K/(M^−2))” value is listed as 7.528 ± 0.004. In addition, the “ROS levels compared to menadione, CellROX stain” value in series [8] is on record as “lower levels of ROS”. The “Log P” value in series [9] was determined as 2.34. In series [10], the “Solubility (by observation)” value is listed as “low solubility”. Moreover, the “IC50 against MCF-7” value in series [11] was “submicromolar”. The “IC50 against U266” value in series [12] is listed as “submicromolar”.
Consider `N.N.[Cl][Pt][Cl]` [Cisplatin, reference compound], for which the figures for the IC50 in [1], in series [2] and in series [5] were above 100000 nM, 13000 ± 100 nM and 40000 ± 1000 nM, respectively. Also, the “Selectivity index (SI) against MIA PaCa-2” value in series [1] (IC50 against non-cancerous ARPE-19 cells divided by IC50 against MIA PaCa-2) was below 0.13.
As for `[Cu+2].[O-]n1ccc(C(F)(F)F)cc1=S.[O-]n1ccc(C(F)(F)F)cc1=S` [[Cu(4-CF3-PT)2]], the values for the IC50 in [1], in series [2] and in series [5] were 21600 ± 400 nM, 17300 ± 400 nM and 8900 ± 300 nM, respectively.
Regarding `COc1ccc[n+]([O-])c1[S][Cu][S]c1c(OC)ccc[n+]1[O-]` [[Cu(3-OMe-PT)2]], the IC50 in [1] worked out at 2700 ± 100 nM; in series [2], 870 ± 40 nM; in series [5], 220 ± 10 nM. In addition, the “ROS production, H2DCFDA fluorescence” value in [3] is “brightest fluorescence”. For the same compound, the “Log(K/(M^−2))” value in [4] amounted to 7.560 ± 0.002. In series [5], the “Selectivity index (SI) against MCF-7” value is 3.95.
With `Cc1cccn([O-])c1=S.Cc1cccn([O-])c1=S.[Cu+2]` [[Cu(3-Me-PT)2]], the IC50 in series [1] worked out at 7100 ± 200 nM; in [2], 2200 ± 100 nM; in [5], 347 ± 6 nM. The “Selectivity index (SI) against MCF-7” value in series [5] amounted to 6.34.
For the compound `Cc1cc[n+]([O-])c([S][Cu][S]c2cc(C)cc[n+]2[O-])c1` [[Cu(4-Me-PT)2]], the IC50 in series [1] is 8500 ± 300 nM; in series [2] it was 1800 ± 100 nM; in series [5] it was 690 ± 20 nM.
